Laboratory results published in US20220031690A1, “ANTI-NEURODEGENERATIVE DISEASE AGENT” (Hayashibara Co., Ltd., priority 2018, published 2022).

What was measured:
[1] = test system: PC12-HS cells; test: Evaluation method B: neurite-outgrowth promoting activity in the presence of NGF; assay type: cell-based, rat; conditions: for Neurite-outgrowth rate (%) / Action on PC12-HS neurite-outgrowth promotion (500 ng/ml): NGF 10 ng/ml; for Action on PC12-HS neurite-outgrowth promotion (500 ng/ml): 3 days, class of neurite-outgrowth rate; for neurite-outgrowth promoting activity (in words): 200 and 1,000 nM, comment on Table 2
Description: (§1) As a model of the nerve cell, the NGF (nerve growth factor) highly sensitive strain of PC12 cell derived from the rat adrenal pheochromocytoma (hereinafter referred to as “PC12-HS cell”; JCRB cell bank, National Research and Development Institute of Health and Nutrition), which has been widely used as a suitable model for research on human neurodegenerative disease, was used. As the test compound, […] of trimethine cyanine dye compounds; NK-5 (Chemical formula 2), NK-36 (Chemical formula 3), NK-44 (Chemical formula 5) and dye compounds represented by Chemical formulae 12 to 18, and NK-6 (Chemical formula 7), which is a monomethine cyanine dye, were selected. In addition, two kinds of ethylene cross-linked dyes (Chemical formulae 19 and 20), 15 kinds of monomethine cyanine dyes (Chemical formulae 21 to 35), and seven kinds of trimethine cyanine dyes (Chemical formulae 36 to 42), which were expected to have a good neurocyte growth acceleration activity and/or neurite-outgrowth promoting activity in the screening disclosed in Patent literature 6, were also re-evaluated for comparison. The Chemical formulae 12 to 42 are shown below.
(§2) The cyanine dye compounds subjected to the test (purity 97% by mass or more, synthesized by Hayashibara Co., Ltd., Okayama, Japan) were individually dissolved in DMSO (product number “D8418”, commercialized by SIGMA Corporation) at a concentration of 5 mg/ml, and the solutions were then filtered through DMSO-resistant membrane (“Millex-LGS LLG025SS”, commercialized by Millipore Corporation) and stored at 25° C. in a dark condition. At the time of use, they were further diluted with Dulbecco's Medium (hereinafter, abbreviated as “D-MEM medium”, commercialized by Nissui Pharmaceutical Co., Ltd.) supplemented by 10% by volume of fetal bovine serum (FBS), and subjected to the test.
As in the case of evaluation of neurocyte growth accelerating activity (Evaluation method A), 50 μl/well of each test compound solution, prepared by diluting with the culture medium to give a final concentration of 500 ng/ml, and the culture medium containing 20 ng/ml of mouse NGF (mouse derived, final concentration 10 ng/ml, commercialized by Chemicon International, Inc., CA, USA) (50 μl/well) were added to the precultured PC12-HS cells in each well, and then cultured for three days. Culture medium was removed on day 3 of culture, and cells were fixed by adding 100 μl/well of 10% by volume of glutaraldehyde and standing for 20 minutes at room temperature. As a negative control, PC12-HS cells, cultured for three days with culture medium, were fixed with glutaraldehyde similarly as above. Fixed cells were observed under a microscope to assess the neurite-outgrowth. The neurite-outgrowth rate (%) was determined by observing the cells using a microscope by adjusting the magnitude to give about 100 cells in one visual field, counting the number of cells having neurites twice or more in length of the cell body (major axis), dividing by the total number of cells in the same visual field, and multiplying by 100. Measurements were carried out at three points for each test compound. […] In this experiment, the neurite-outgrowth rate was 5% or less when NGF was added (final concentration 10 ng/ml) without the addition of the test compound.
The method was based on Experiment 1-1, except the concentrations of the test compounds were set to three doses of 40 nM, 200 nM and 1,000 nM for evaluation method A (neurocyte growth accelerating effect), and two doses of 200 nM and 1,000 nM for evaluation method B (neurite outgrowth promoting effect). Measurements were performed in triplicate for each concentration of each test compound in both evaluation methods A and B. The result of the evaluation method A was expressed as a cell proliferation rate (%) by determined a relative percentage (%) when the value of the negative control to which the test compound was not added, was regarded as 100%. […]

[2] = test system: PC12-HS cells; test: Evaluation method A: neurocyte growth acceleration activity (Alamar blue); assay type: cell-based, rat; conditions: for Cell proliferation rate (%): negative control = 100%; for neurocyte growth acceleration activity (in words): 40, 200 and 1,000 nM, comment on Table 2
Description: as §1, §2
PC12-HS cells were subjected to tests after frozen stock cultured cells were thawed and cultured with a D-MEM medium supplemented with 10% by volume of FBS (Hereinafter, when the term “culture” is simply used, it means that the cells are statically cultured in an incubator controlled at 37° C. under 5% by volume of CO2 conditions). Cells used in the test were collected using 0.25% by weight of trypsin solution, then diluted with a D-MEM medium supplemented with 10% by volume of FBS (hereinafter referred to as “culture medium”), seeded into collagen-coated 96-well plates (commercialized by Falcon, Tokyo, Japan, “Microtest Plate, Cell Culture, Flat Bottom”) to obtain 5×10^3 cells/100 μl/well, and cultured for 24 hours (hereinafter referred to as “pre-culture”). Then, the above test samples were diluted with a culture medium, and 100 μl of diluted solution of the test compounds were added to each well so that the final concentration of the test compounds in the wells became 50 ng/ml, and the cells were cultured for another three days. On day 3, the cultures supernatant was removed from each well, 200 μl of culture medium containing 10% by volume of Alamar blue reagents (commercialized by Trek Diagnostic Systems Inc., Ohio, USA) were added to each well, and the cells were cultured for 6 hours. After culturing for 6 hours, the cells were measured for fluorescent intensity at a wavelength of 544-590 nm by “FlexStation 3”, a product name of a fluorescent plate reader (commercialized by Japan Molecular Devices Corporation, Tokyo, Japan). […] Measurements were performed for each test compound in triplicate, and the mean values were shown.
The method was based on Experiment 1-1, except the concentrations of the test compounds were set to three doses of 40 nM, 200 nM and 1,000 nM for evaluation method A (neurocyte growth accelerating effect), and two doses of 200 nM and 1,000 nM for evaluation method B (neurite outgrowth promoting effect). […]

[3] = DPPH radical scavenging ability (absorbance method); assay type: biochemical; conditions: ethanol, room temperature, 2 hours, absorbance at 490 nm
Description: 2,2-Diphenyl-1-picrylhydrazyl (hereinafter referred to as “DPPH”) is a radical with an unpaired electron and has the oxidizing ability of other substances. In addition, because it is stable and easy to handle, it is widely used as an artificial radical-like substance for measuring the antioxidant ability of antioxidants. When DPPH reacts with a substance having antioxidant ability, it loses its own oxidizing ability and its color changes from deep purple to […].
DPPH (commercialized by Tokyo Kasei Kogyo Co., Ltd., Tokyo, Japan) was dissolved in ethanol to prepare a 167 μM DPPH ethanol solution, and 90 μl of the solution was added to each well of the 96-well microplate. A 60 μl each of the test compound serially diluted with ethanol was added to the DPPH ethanol solution, and the mixture was reacted at room temperature for 2 hours, and then the absorbance at 490 nm was measured. […] From those value, the 50% inhibitory concentration of the DPPH radical (Hereinafter, it is referred to as “IC50”) was calculated.

## CCN1C(=CC(C)=Cc2sc3ccccc3[n+]2CCCS(=O)(=O)[O-])Sc2ccccc21 [NK-4781]
[1]; 1.000 nM
  Neurite-outgrowth rate (%): 88.3%
[1]; 200 nM
  Neurite-outgrowth rate (%): 31.2%
[1]
  Action on PC12-HS neurite-outgrowth promotion (500 ng/ml): ⊚ (45% or more was judged to be more potent than NK-4 (“double circle”))
  neurite-outgrowth promoting activity (in words): stronger neurite-outgrowth promoting activity than NK-4
[2]; 1.000 nM
  Cell proliferation rate (%): 89.1%
[2]; 40 nM
  Cell proliferation rate (%): 110.0%
[2]; 200 nM
  Cell proliferation rate (%): 106.6%
[2]
  neurocyte growth acceleration activity (in words): almost no growth acceleration activity

## CC1=CO/C(=C\C=C\c2occ(C)[n+]2C)N1C.F[P-](F)(F)(F)(F)F [NK-10089]
[1]; 1.000 nM
  Neurite-outgrowth rate (%): 29.3%
[1]; 200 nM
  Neurite-outgrowth rate (%): 0.0%
[2]; 1.000 nM
  Cell proliferation rate (%): 91.6%
[2]; 40 nM
  Cell proliferation rate (%): 110.6%
[2]; 50 ng/ml, 3 days culture, class of cell proliferation rate vs negative control = 100%
  Action on PC12-HS growth acceleration (50 ng/ml): ◯ (the relative value of 130% to 169% was judged to be equivalent to NK-4 (“circle”))
[2]; 200 nM
  Cell proliferation rate (%): 123.4%
[2]
  neurocyte growth acceleration activity (in words): slightly weaker activity than NK-6 and NK-36

## COC1C=CC=CC1=CC=CC1=[N+](C)c2ccc3ccccc3c2C1(C)C.Cc1ccc(S(=O)(=O)[O-])cc1 (stereo not drawn) [NK-10214]
[1]; 1.000 nM
  Neurite-outgrowth rate (%): 48.8%
[1]; 200 nM
  Neurite-outgrowth rate (%): 23.6%
[1]
  Action on PC12-HS neurite-outgrowth promotion (500 ng/ml): ⊚ (45% or more was judged to be more potent than NK-4 (“double circle”))
  neurite-outgrowth promoting activity (in words): stronger neurite-outgrowth promoting activity than NK-4
[2]; 1.000 nM
  Cell proliferation rate (%): 103.3%
[2]; 40 nM
  Cell proliferation rate (%): 109.3%
[2]; 200 nM
  Cell proliferation rate (%): 123.1%
[2]
  neurocyte growth acceleration activity (in words): slightly weaker activity than NK-6 and NK-36

## CCn1ccc(=O)c2ccccc21 [NKX-4076]
[3]
  IC50: ≥ 10 mM
